Data reported in patent US20060193880A1, “Method and compositions for attracting mosquitoes employing (R)-(+)-isomers of 1-alkyn-3-ols” (Bedoukian Research, Inc., priority 2005, published 2006).

What was measured:
Assay type in all cases: in vivo
mosquitoes [1] = test: Mosquito trap catch, Mosquito Magnet Pro units, Florida; settings: release rates approx. 60 mg/day and 500 mg/day; 10-18 test days
Method: In tests performed in Florida using Mosquito Magnet Pro units, (R)-(+)-1-octyn-3-ol was compared with racemic 1-octyn-3-ol and (S)-(-)-1-octyn-3-ol at release rates of approximately 60 mg/day and 500 mg/day. The lures were rotated among the traps and compared to the same traps with no lure, all relative to a control trap. The (S)-(-)-1-octyn-3-ol caught an average of 39% more mosquitoes relative to the control than the traps when no lure was used (18 test days), the racemic 1-octyn-3-ol caught an average of 240% more mosquitoes than did no lure (10 test days), and the (R)-(+)-1-octyn-3-ol caught an average of 334% more mosquitoes than the traps with no lure (16 test days).

mosquitoes [2] = test: Mosquito trap catch with wax lure and CO2, model 1012 traps, Connecticut; settings: wax lure, approx. 0.17 mg/hr release, CO2 approx. 140 ml/minute, average of four three-day cycles
Method: The following tests were conducted in Connecticut in September 2004. Mosquito traps model 1012 manufactured by John W. Hock Company in Gainesville, Florida were used in these experiments. The traps use a stream of CO2 directed in the vicinity of a collection bag, with a fan used to blow mosquitoes into the bag. The light supplied with the trap was turned off. The traps were spaced 65-70 feet apart at the edge of a wetland in Danbury, Conn., at least 25 feet from any buildings. The (R) and (S)-1-octyn-3-ol was incorporated into a wax lure of the type manufactured by BioSensory, Inc. and placed near a stream of CO2 which was being released at a rate of approximately 140 ml/minute. The traps were operated from approximately 4:00 PM until 9:00 AM the next day. Daytime temperatures were 70-75° F. during the trials. Average weight loss from the wax lures during the test was approximately 4 mg/day, or 0.17 mg/hr. Three traps were used, with either (R)-1-Octyn-3-ol, (S)-1-Octyn-3-ol, or no treatment, rotated among the traps over a three-day cycle. Four complete cycles were performed and the results for each treatment were averaged.
The traps with no attractant were considered as the baseline catch of mosquitoes and the results of the catches with the isomers were compared to this baseline value.

mosquitoes [3] = test: Mosquito trap catch, Mosquito Magnet Liberty traps, Danbury, Conn.; settings: porous frit, 1 gram, releasing approx. 1 mg/h, rotated twice among four traps over eight days
Method: Tests were conducted with the Mosquito Magnet Liberty model manufactured by American Biophysics Corp. The traps were spaced 65-70 feet apart at the edge of a wetland in Danbury, Conn., at least 25 feet from any buildings. 1 gram of test chemical was added to a clean porous frit of the type normally used in the trap, releasing approximately 1 mg/h. (R)-(+)-1-octyn-3-ol, (S)-(-)-1-octyn-3-ol, (R)-(-)-1-octen-3-ol, and racemic 1-octen-3-ol were rotated twice among four traps over eight days, and the results for each attractant were compared.

Structure (SMILES) | average more mosquitoes caught than the traps with no lure, relative to a control trap (mosquitoes [1]) | more mosquitoes captured than the baseline (traps with no attractant) (mosquitoes [2]) | more mosquitoes caught than the trap with the 50:50 racemic mixture of 1-octen-3-ol (mosquitoes [3]) | less mosquitoes caught than the trap with the 50:50 racemic mixture of 1-octen-3-ol (mosquitoes [3])
C#CC(O)CCCCC (racemic) [racemic 1-octyn-3-ol, 1-octyn-3-ol] | 240% | – | – | –
C#C[C@H](O)CCCCC [(R)-(+)-1-octyn-3-ol] | 334% | 120% | 34% | –
C#C[C@@H](O)CCCCC [(S)-(-)-1-octyn-3-ol] | 39% | 65% | – | 23%
